Measured values taken from patent US10065970B2 (Genentech, Inc., priority 2015, dated 2018).

molecular target: PI3Kα (alpha) (Homo sapiens (Human), UniProt P42336); assay: p110α (alpha) PI3K Binding Assay (ADP-Glo lipid kinase reaction); assay type: biochemical; conditions: PI3K alpha 0.2 nM, ATP 40 μM, PIP2:3PS 50 μM, 120 min, room temperature; Ki by Morrison Equation; read-out: PI3Kα-(alpha) ATP (Ki) micromolar
Procedure, shortened: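 Enzyme with PIP2:3PS lipid substrate and ATP/MgCl2 in 50 mM HEPES, 50 mM NaCl, 3 mM MgCl2, 0.01% BSA, 1% DMSO, 120 min at room temperature. ADP formed detected by ADP-Glo luminescence. Ki from 10-point dose-response curves via the Morrison equation.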

PI3Kα (alpha), sequence (P42336 whole entry): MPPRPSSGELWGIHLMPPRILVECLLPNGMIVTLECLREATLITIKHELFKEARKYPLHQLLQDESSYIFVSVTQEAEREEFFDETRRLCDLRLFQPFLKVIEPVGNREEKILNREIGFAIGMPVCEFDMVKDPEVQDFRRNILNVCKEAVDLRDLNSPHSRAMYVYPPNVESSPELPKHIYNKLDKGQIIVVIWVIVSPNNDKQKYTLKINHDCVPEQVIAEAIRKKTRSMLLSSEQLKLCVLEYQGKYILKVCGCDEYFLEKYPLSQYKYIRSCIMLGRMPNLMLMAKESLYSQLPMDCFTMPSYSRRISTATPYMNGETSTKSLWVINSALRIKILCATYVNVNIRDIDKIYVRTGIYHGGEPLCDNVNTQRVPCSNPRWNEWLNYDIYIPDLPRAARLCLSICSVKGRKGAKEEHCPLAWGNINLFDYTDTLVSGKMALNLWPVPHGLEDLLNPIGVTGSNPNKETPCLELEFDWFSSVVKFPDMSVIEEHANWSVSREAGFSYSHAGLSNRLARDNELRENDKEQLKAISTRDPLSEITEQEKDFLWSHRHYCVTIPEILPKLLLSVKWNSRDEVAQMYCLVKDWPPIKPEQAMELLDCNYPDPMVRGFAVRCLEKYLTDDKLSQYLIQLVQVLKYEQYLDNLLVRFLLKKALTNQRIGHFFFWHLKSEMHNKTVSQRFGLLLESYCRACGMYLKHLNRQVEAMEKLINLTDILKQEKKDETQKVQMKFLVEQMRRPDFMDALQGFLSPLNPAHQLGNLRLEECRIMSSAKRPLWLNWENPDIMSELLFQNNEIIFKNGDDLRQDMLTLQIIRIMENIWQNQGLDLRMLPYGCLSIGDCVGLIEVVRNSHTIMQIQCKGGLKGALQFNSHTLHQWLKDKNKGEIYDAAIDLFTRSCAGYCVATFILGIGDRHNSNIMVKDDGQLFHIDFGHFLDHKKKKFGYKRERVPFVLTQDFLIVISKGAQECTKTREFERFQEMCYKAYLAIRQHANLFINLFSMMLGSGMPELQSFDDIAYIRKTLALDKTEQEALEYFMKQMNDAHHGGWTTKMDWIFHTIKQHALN
PI3Kα (alpha), sequence (P27986 whole entry partner): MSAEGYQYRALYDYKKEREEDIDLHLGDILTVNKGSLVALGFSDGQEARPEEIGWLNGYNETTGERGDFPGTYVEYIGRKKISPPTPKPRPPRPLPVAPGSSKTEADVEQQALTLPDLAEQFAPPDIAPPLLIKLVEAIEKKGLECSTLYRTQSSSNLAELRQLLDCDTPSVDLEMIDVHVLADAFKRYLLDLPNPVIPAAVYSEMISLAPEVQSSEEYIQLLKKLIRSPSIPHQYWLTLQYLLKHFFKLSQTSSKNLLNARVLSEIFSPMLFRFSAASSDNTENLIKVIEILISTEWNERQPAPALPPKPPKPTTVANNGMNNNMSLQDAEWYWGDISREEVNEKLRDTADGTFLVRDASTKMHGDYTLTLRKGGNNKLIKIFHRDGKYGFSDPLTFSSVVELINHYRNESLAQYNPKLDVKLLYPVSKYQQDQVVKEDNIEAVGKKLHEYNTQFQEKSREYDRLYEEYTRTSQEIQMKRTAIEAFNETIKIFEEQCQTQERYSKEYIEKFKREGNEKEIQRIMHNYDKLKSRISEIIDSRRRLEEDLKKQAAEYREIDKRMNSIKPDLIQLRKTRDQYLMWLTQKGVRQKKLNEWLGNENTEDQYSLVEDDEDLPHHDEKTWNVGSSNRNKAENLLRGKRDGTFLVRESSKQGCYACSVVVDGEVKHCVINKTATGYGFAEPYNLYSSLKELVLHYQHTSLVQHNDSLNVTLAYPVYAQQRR

Structure (SMILES) | Ki
Cn1cc(-c2cc3c4c(c2)nc(-c2ccc5oc(N)nc5c2)n4CCCO3)cn1 [Example 153, 5-(4-(1-Methyl-1H-pyrazol-4-yl)-8,9-dihydro-7H-6-oxa-2,9a-diazabenzo[cd]azulen-1-yl)benzo[d]oxazol-2-amine] | 0.74 nM
NC(=O)[C@H](C1CC1)n1cc(-c2cc3c4c(c2)nc(-c2ccc5oc(N)nc5c2)n4CCCO3)cn1 (single isomer, unassigned) [Example 230] | 0.309 nM
NC(=O)[C@@H](Nc1cc2c3c(c1)nc(N1CCc4nccnc4C1)n3CCCO2)C1CC1 [Example 179, (S)-2-Cyclopropyl-2-((1-(7,8-dihydropyrido[3,4-b]pyrazin-6(5H)-yl)-8,9-dihydro-7H-6-oxa-2,9a-diazabenzo[cd]azulen-4-yl)amino)acetamide] | 154 nM
C[C@H](C(N)=O)n1cc(-c2cc3c4c(c2)nc(-c2ccc5oc(N)nc5c2)n4CCCO3)cn1 [Example 218, (R)-2-(4-(1-(2-Aminobenzo[d]oxazol-5-yl)-8,9-dihydro-7H-6-oxa-2,9a-diazabenzo[cd]azulen-4-yl)-1H-pyrazol-1-yl)propanamide] | 0.143 nM
Cn1cc(-c2nc3cc(N[C@H](C(N)=O)C4CC4)cc4c3n2CCCO4)ccc1=O [Example 147, (S)-2-Cyclopropyl-2-((1-(1-methyl-6-oxo-1,6-dihydropyridin-3-yl)-8,9-dihydro-7H-6-oxa-2,9a-diazabenzo[cd]azulen-4-yl)amino)acetamide] | 139 nM
NC(=O)[C@@H](Nc1cc2c3c(c1)nc(-c1ccnnc1)n3CCCO2)C1CC1 [Example 125, (S)-2-Cyclopropyl-2-((1-(pyridazin-4-yl)-8,9-dihydro-7H-6-oxa-2,9a-diazabenzo [cd]azulen-4-yl)amino)acetamide] | 221 nM
NC(=O)[C@@H](Nc1cc2c3c(c1)nc(-c1ccc4oc(N)nc4c1)n3CCCO2)C1CC1 [Example 135, (S)-2-((1-(2-Aminobenzo[d]oxazol-5-yl)-8,9-dihydro-7H-6-oxa-2,9a-diazabenzo[cd]azulen-4-yl)amino)-2-cyclopropylacetamide] | 0.076 nM
N#CC1CCCN(c2nc3cc(NC(C(N)=O)C4CC4)cc4c3n2CCCO4)C1 [Example 174, (S)-2-[1-(3-Cyanopiperidin-1-yl)-8,9-dihydro-7H-6-oxa-2,9a-diazabenzo[cd]azulen-4-ylamino]-2-cyclopropylacetamide] | 262 nM
NC(=O)[C@@H](Nc1cc2c3c(c1)nc(-c1ccc(-c4nc[nH]n4)cc1)n3CCCO2)C1CC1 [Example 190, (S)-2-((1-(4-(1H-1,2,4-Triazol-3-yl)phenyl)-8,9-dihydro-7H-6-oxa-2,9a-diazabenzo[cd]azulen-4-yl)amino)-2-cyclopropylacetamide] | 0.15 nM
CS(=O)(=O)c1cncc(-c2nc3cc(N[C@H](C(N)=O)C4CC4)cc4c3n2CCCO4)c1 [Example 175, (S)-2-Cyclopropyl-2-((1-(5-(methylsulfonyl)pyridin-3-yl)-8,9-dihydro-7H-6-oxa-2,9a-diazabenzo[cd]azulen-4-yl)amino)acetamide] | 26 nM
NC(=O)[C@@H](Nc1cc2c3c(c1)nc(-c1ccc4nccnc4c1)n3CCCO2)C1CC1 [Example 117, (S)-2-Cyclopropyl-2-((1-(quinoxalin-6-yl)-8,9-dihydro-7H-6-oxa-2,9a-diazabenzo[cd]azulen-4-yl)amino)acetamide] | 1.18 nM
NC(=O)[C@@H](C1CC1)n1cc(-c2cc3c4c(c2)nc(-c2ccc5oc(N)nc5c2)n4CCCO3)cn1 (single isomer, unassigned) [Example 231] | 0.437 nM
Cn1nc(-c2nc3cc(N[C@H](C(N)=O)C4CC4)cc4c3n2CCCO4)ccc1=O [Example 129, (S)-2-Cyclopropyl-2-((1-(1-methyl-6-oxo-1,6-dihydropyridazin-3-yl)-8,9-dihydro-7H-6-oxa-2,9a-diazabenzo[cd]azulen-4-yl)amino)acetamide] | 257 nM
COc1ccc(-n2nc3cc(N[C@H](C(N)=O)C4CC4)cc4c3c2CCCO4)cn1 [Example 213, (S)-2-Cyclopropyl-2-((1-(6-methoxypyridin-3-yl)-1,7,8,9-tetrahydrooxepino[4,3,2-cd]indazol-4-yl)amino)acetamide] | 23.8 nM
CNc1nc2cc(-c3nc4cc(N5CCC[C@H]5C(N)=O)cc5c4n3CCCO5)ccc2o1 [Example 186, (S)-1-(1-(2-(methylamino)benzo-[d]oxazol-5-yl)-8,9-dihydro-7H-6-oxa-2,9a-diazabenzo[cd]azulen-4-yl)pyrrolidine-2-carboxamide] | 6.93 nM
Cc1cc(-c2nc3cc(N[C@H](C(N)=O)C4CC4)cc4c3n2CCCO4)cc2nc(N)oc12 [Example 205, (S)-2-((1-(2-Amino-7-methylbenzo[d]oxazol-5-yl)-8,9-dihydro-7H-6-oxa-2,9a-diazabenzo[cd]azulen-4-yl)amino)-2-cyclopropylacetamide] | 0.191 nM
NC(=O)c1cc(-c2nc3cc(N[C@H](C(N)=O)C4CC4)cc4c3n2CCCO4)ccn1 [Example 151, (S)-4-(4-((2-Amino-1-cyclopropyl-2-oxoethyl)amino)-8,9-dihydro-7H-6-oxa-2,9a-diazabenzo[cd]azulen-1-yl)picolinamide] | 10.2 nM
Cc1ccncc1-c1nc2cc(N[C@H](C(N)=O)C3CC3)cc3c2n1CCCO3 [Example 122, (S)-2-Cyclopropyl-2-((1-(4-methylpyridin-3-yl)-8,9-dihydro-7H-6-oxa-2,9a-diazabenzo[cd]azulen-4-yl)amino)acetamide] | 296 nM
NC(=O)[C@@H](Nc1cc2c3c(c1)nc(-c1ccc4nc(N)sc4c1)n3CCCCO2)C1CC1 [Example 214, (S)-2-((1-(2-Aminobenzo[d]thiazol-6-yl)-7,8,9,10-tetrahydro-6-oxa-2,10a-diazacycloocta[cd]inden-4-yl)amino)-2-cyclopropylacetamide] | < 0.02 nM
COc1ccc(-c2nc3cc(N[C@@H](C)C(N)=O)cc4c3n2CCCO4)cn1 [Example 111, (S)-2-((1-(6-Methoxypyridin-3-yl)-8,9-dihydro-7H-6-oxa-2,9a-diazabenzo[cd]azulen-4-yl)amino)propanamide] | 11.6 nM

Results, then the molecule that gave them:

Ki | Structure (SMILES)
< 0.02 nM | NC(=O)[C@@H](Oc1cc2c3c(c1)nc(-c1ccc(-c4ncn[nH]4)c(F)c1)n3CCCCO2)C1CC1 (single isomer, unassigned) [Example 305]
< 0.02 nM | NC(=O)[C@@H]1CCCN1c1cc2c3c(c1)nc(-c1ccc4oc(N)nc4c1)n3CCCCO2 [Example 250, (S)-1-(1-(2-Aminobenzo[d]oxazol-5-yl)-7,8,9,10-tetrahydro-6-oxa-2,10a-diazacycloocta[cd]inden-4-yl)pyrrolidine-2-carboxamide]
< 0.02 nM | C[C@H](Oc1cc2c3c(c1)nc(-c1cnc(-c4ncn[nH]4)c(F)c1)n3CCCCO2)C(N)=O [Example 307, (S)-2-((1-(5-Fluoro-6-(1H-1,2,4-triazol-5-yl)pyridin-3-yl)-7,8,9,10-tetrahydro-6-oxa-2,10a-diazacycloocta[cd]inden-4-yl)oxy)propanamide]
< 0.02 nM | NC(=O)[C@@H](Nc1cc2c3c(c1)nc(-c1ccc4sc(N)nc4c1)n3CCCCO2)C1CC1 [Example 246, (S)-2-((1-(2-Aminobenzo[d]thiazol-5-yl)-7,8,9,10-tetrahydro-6-oxa-2,10a-diazacycloocta[cd]inden-4-yl)amino)-2-cyclopropylacetamide]
0.027 nM | NC(=O)[C@@H](Oc1cc2c3c(c1)nc(-c1ccc4nc(N)sc4c1)n3CCCCO2)C1CC1 (single isomer, unassigned) [Example 281]
0.171 nM | CO[C@@H]1CCN(c2cc3c4c(c2)nc(-c2ccc5oc(N)nc5c2)n4CCCCO3)[C@@H]1C(N)=O [Example 310, (2S,3R)-1-(1-(2-Aminobenzo[d]oxazol-5-yl)-7,8,9,10-tetrahydro-6-oxa-2,10a-diazacycloocta[cd]inden-4-yl)-3-methoxypyrrolidine-2-carboxamide]
137 nM | NC(=O)[C@@H]1CCCN1c1cc2c3c(c1)nc(-c1ccc4c(=O)[nH]oc4c1)n3CCCO2 [Example 237, (S)-1-(1-(3-Oxo-2,3-dihydrobenzo[d]isoxazol-6-yl)-8,9-dihydro-7H-6-oxa-2,9a-diazabenzo[cd]azulen-4-yl)pyrrolidine-2-carb oxamide]
< 0.02 nM | COC[C@H](Oc1cc2c3c(c1)nc(-c1ccc4nc(N)sc4n1)n3CCCCO2)C(N)=O (single isomer, unassigned) [Example 315]
< 0.02 nM | C[C@H](Oc1cc2c3c(c1)nc(-c1ccc(-c4ncn[nH]4)cn1)n3CCCCO2)C(N)=O [Example 296, (S)-2-((1-(5-(1H-1,2,4-Triazol-5-yl)pyridin-2-yl)-7,8,9,10-tetrahydro-6-oxa-2,10a-diazacycloocta[cd]inden-4-yl)oxy)propanamide]
2.1 nM | C[C@H](Oc1cc2c3c(c1)nc(-c1ccc4nc(N)sc4c1)n3CCCO2)C(N)=O [Example 274, (S)-2-((1-(2-Aminobenzo[d]thiazol-6-yl)-8,9-dihydro-7H-6-oxa-2,9a-diazabenzo[cd]azulen-4-yl)oxy)propanamide]
2.23 nM | C[C@H](Oc1cc2c3c(c1)nc(-c1ccc4oc(N)nc4c1)n3CCCCO2)C(=O)O [Example 297, (S)-2-((1-(2-Aminobenzo[d]oxazol-5-yl)-7,8,9,10-tetrahydro-6-oxa-2,10a-diazacycloocta[cd]inden-4-yl)oxy)propanoic acid]

same assay, conditions: read-out: PI3Kα-(alpha) ATP (Ki) micromolar

Ki | Structure (SMILES)
0.627 nM | C[C@H]1CCN(c2cc3c4c(c2)nc(-c2ccc5oc(N)nc5c2)n4CCCO3)[C@@H]1C(N)=O [Example 308, (2S,3S)-1-(1-(2-Aminobenzo[d]oxazol-5-yl)-8,9-dihydro-7H-6-oxa-2,9a-diazabenzo[cd]azulen-4-yl)-3-methylpyrrolidine-2-carboxamide]
0.039 nM | CC[C@H](C(N)=O)n1cc(-c2cc3c4c(c2)nc(-c2ccc5oc(N)nc5n2)n4CCCO3)cn1 (single isomer, unassigned) [Example 312]
